Laboratory results taken from patent US8790889B2, “Neuronal stimulation” (The University of Queensland, priority 2009, dated 2014).
“Also recorded” adds a separate entry of the source. Counter-ions that a name gives are not always drawn.

Tests used:
[1] = system: adult hippocampal precursors; test: Adult hippocampal neurosphere culture; assay type: cell-based, mouse; settings: for effect of antagonist on norepinephrine-stimulated increase in neurosphere numbers: in presence of norepinephrine, prazosin 100 nM, propranolol 1 μM, CGP20712 10 nM, SR59230A 10 nM; for effect of antagonist on norepinephrine-stimulated increase in neurosphere numbers / increase in neurosphere numbers compared to the control: yohimbine 1 μM, ICI118,551 10 nM; for neurosphere numbers with antagonist alone / increase in neurosphere numbers compared to the control: no norepinephrine, antagonist alone
Protocol: Animals were treated in accordance with the Australian Code of Practice for the Care and Use of Animals for Scientific Purposes and ethics approval was obtained for all experiments from the Animal Ethics Committee of the University of Queensland. 8-10 week old male C57/B16 mice were killed by cervical dislocation and their brains removed. Brains were bisected along the midline in the sagittal plane. The hippocampi were isolated from the overlying cortex and minced using a scalpel blade. Minced tissue was digested in 0.1% papain (Invitrogen, Melbourne, Australia) for 20 minutes at 37° C., after which an excess of NeuroCult NSC basal medium (Stem Cell Technologies, Vancouver, Canada) was added to halt the digestion. Tissue was then centrifuged at 100 rcf for 5 minutes, the resulting pellet was resuspended in 1 ml of complete neurosphere medium, and a single cell suspension was achieved by gentle trituration. The cells were filtered through a 40 μm cell sieve (BD Biosciences, Sydney, Australia) and resuspended in NeuroCult NSC basal medium containing NeuroCult proliferation supplements (Stem Cell Technologies), 2% bovine serum albumin (Invitrogen) and 2 μg/ml heparin (Sigma-Aldrich, Sydney, Australia). The growth factors added were 20 ng/ml EGF (receptor grade, BD Biosciences) and 10 ng/ml bFGF (recombinant bovine, Roche, Basel, Switzerland). The cells were then plated in a 96-well plate and cultured in complete neurosphere medium containing EGF and bFGF, in the presence or absence of 5-hydroxytryptamine hydrochloride (serotonin; 100 nM, 1 μM, 10 μM), L-(−)-noradrenaline (+)-bitartrate salt monohydrate (norepinephrine; 100 nM, 1 μM, 10 μM) or KCl (15 mM). The adrenergic receptor antagonists used were prazosin (100 nM), yohimbine (1 μM), propranolol (1 μM), CGP20712 (10 nM), ICI118,551 (10 nM) and SR59230A (10 nM). BRL37344 was used as a selective β3 adrenergic receptor agonist. All the compounds were purchased from Sigma-Aldrich. The number of primary neurospheres was counted on day 10-13 and expressed as a percentage relative to the control.

hippocampal precursors [2] = test: Slice-sphere assay (hippocampal organotypic slices, then neurosphere culture); assay type: cell-based, rat; settings: for neurosphere frequency: FIG. 8b, 1 μM; for effect on precursor numbers / frequency of neurosphere generation: 1 μM or 10 μM
Protocol: D-glucose (Sigma-Aldrich) was added to the medium to a final concentration of 5 mM. Four filters, each containing 6-7 hippocampal slices, were generated from a single animal. Plates were incubated at 37° C. in a humidified 5% CO2 incubator and the slices were cultured for 6 days. To assess the influence of specific compounds on hippocampal precursor proliferation in the slice culture, compounds were added to the complete medium at the doses described below. Two filters were treated with the compounds for each dose per experiment. On every alternate day half the medium was removed and replaced with fresh medium containing the compounds. Slices were treated with serotonin at 10 μM and 100 μM and norepinephrine at 1 μM, 10 μM and 100 μM. […] Propranolol (10 μM) was used to block β adrenergic receptors in the slices. On the 6th day of culture, the hippocampal slices from each treatment group were pooled and the tissue was minced using a scalpel blade. Minced tissue was then treated with 0.1% trypsin-EDTA (Invitrogen) for 5 minutes at 37° C. […] A single cell suspension was achieved by gentle trituration. The total number of viable cells in an aliquot was counted on a haemocytometer based on the exclusion of 0.08% trypan blue (Sigma-Aldrich). The cells were then cultured in complete neurosphere medium containing EGF and bFGF. […] For each experiment there were 20 wells plated for each of the doses per treatment group. The plates were incubated at 37° C. in a humidified 5% CO2 incubator.

hippocampal precursors [3] = test: Intrahippocampal infusion for 7 days, hippocampal neurospheres; assay type: in vivo, mouse; settings: 10 μM intrahippocampal infusion for 7 days
Protocol: (§1) Neurospheres with a diameter greater than […] may be derived from BRL37344 treated mice.

[4] = system: stem cells in the hippocampus; test: i.p. treatment for 7 days, hippocampal neurospheres; assay type: in vivo, mouse; settings: 10 mg/kg i.p. for 7 days
Protocol: as §1

Hes5-GFP-positive cells = test: Neurosphere generation from FACS-sorted Hes5-GFP-positive cells; assay type: cell-based, mouse
Protocol: Brains from 8-12 weeks old male Hes5-GFP mice were removed and hippocampi were isolated as described earlier. A live cell suspension was prepared from the hippocampus using 0.1% papain, and the dead cells were labelled with propidium iodide (1 μg/ml). GFP-positive and -negative cells were then purified by fluorescence-activated cell sorting (FACS). Cells were sorted on a FACS Vantage (Becton Dickinson, Melbourne, Australia) with DIVA software. The […] was set relative to the basal fluorescence levels obtained from GFP-negative wild-type littermate controls and a conservative approach was used in selecting only high GFP-expressing cells. The cells were collected in basal medium and plated into 96-well tissue culture plates in medium containing EGF+bFGF with or without norepinephrine (10 μM).

[5] = system: norepinephrine-stimulated large neurospheres; test: Hippocampal neurosphere passaging (self-renewal); assay type: cell-based, mouse; settings: 10 μM; 15 out of 21
Excerpt: To ascertain whether the norepinephrine-stimulated large neurospheres indeed reflected the activation of stem cells, individual neurospheres were selected and subjected to long-term passaging to assess their self-renewal capacity.
As a first step primary, neurospheres were individually dissociated and replated into fresh media not containing norepinephrine. Primary neurospheres from the unstimulated hippocampus were also passaged as single spheres. Hippocampal neurosphere cultures were initiated by removing 150 μl of the medium from wells containing single neurospheres, treating with 100 μl 0.1% trypsin-EDTA for 2 minutes at room temperature, followed by washing with 100 μl trypsin inhibitor in HEM. The neurospheres were mechanically triturated until dissociated and replated in 24 well plates in 2 ml of complete medium. Neurospheres were passaged every 10 days by centrifuging the neurospheres, removing the medium and incubating in 1 ml of 0.1% trypsin-EDTA for 2 minutes at room temperature. After the addition of an equal volume of trypsin inhibitor, the neurospheres were centrifuged at 100 rcf for 5 minutes and the supernatant removed. Cells were mechanically triturated in 500 μl of complete medium and trypan blue staining was used to evaluate the number of cells, both viable and total number, on a haemocytometer. […]

hippocampal neurospheres = test: Immunocytochemistry of neurospheres (multipotentiality); assay type: cell-based, mouse
Protocol: We next determined the multipotentiality of the cells present within the neurospheres generated in the presence and absence of norepinephrine (FIG. 2b, c, d).
Control or norepinephrine-stimulated neurospheres were plated onto poly-ornithine-coated cover slips or poly-D-lysine-coated BioCoat eight-well culture slides (BD Biosciences) in serum-free basal medium without any mitogens. The neurospheres were allowed to flatten and adhere for 4-6 days in a humidified, 5% CO2 incubator. They were then fixed with 4% paraformaldehyde in 0.1M phosphate buffered saline (PBS) at 4° C. for 40 min, and immunocytochemistry was performed as described previously 38 using antibodies to the neuronal marker βIII tubulin (1:2000; Promega, Madison, Wis.), the astrocytic marker GFAP (1:500; DakoCytomation, Carpinteria, Calif.) and the oligodendrocyte marker MBP (1:500; Millipore, Sydney, Australia). 4′,6′-diamidino-2-phenylindole (DAPI; 1:5000; Sigma-Aldrich) was used as a nuclear stain. Slides were mounted using fluoromount (DakoCytomation) and viewed on a Zeiss-Axio Imager microscope. Images were captured using a digital camera linked to a computer using Zeiss software.

## Cn1cc(C(F)(F)F)nc1-c1ccc(OCC(O)CNCCOc2ccc(O)c(C(N)=O)c2)cc1 (stereo not shown) [CGP20712, 2-hydroxy-5-(2-[{2-hydroxy-3-(4-[1-methyl-4-trifluoromethyl-2-imidazolyl]phenoxy)-propyl}amino]ethoxy)benzamide]
[1]
  effect of antagonist on norepinephrine-stimulated increase in neurosphere numbers: no such effect

## CN(C)CCCC1(c2ccc(F)cc2)OCc2cc(C#N)ccc21 (stereo not shown) [citalopram]
Hippocampal precursors [2]; slices treated at 10 μM
  neurosphere frequency as percentage of the control: 113.8±9.9%
Hippocampal precursors [2]; slices treated at 100 μM
  neurosphere frequency as percentage of the control: 103.8±3.8%

## Cl.NCCc1c[nH]c2ccc(O)cc12 [serotonin, 5-hydroxytryptamine hydrochloride]
[1]; 100 nM, 1 μM or 10 μM, EGF and bFGF present
  neurosphere numbers compared to the control: no change
Hippocampal precursors [2]; 10 μM or 100 μM
  effect on frequency of neurosphere formation: no effect
Hippocampal precursors [2]; slices treated at 10 μM
  neurosphere frequency as percentage of the control: 90.07±5.4%
Hippocampal precursors [2]; slices treated at 100 μM
  neurosphere frequency as percentage of the control: 102.81±31.7%

## [Cl-].[K+] [KCl]
[1]; KCl 15 mM alone
  increase in neurosphere numbers: 2 fold

## CC(Cc1ccc(OCC(=O)[O-])cc1)NCC(O)c1cccc(Cl)c1.[Na+] (stereo not shown) [BRL37344]
[1]; 1 μM and 10 μM, comparison 10 μM norepinephrine
  neurosphere numbers compared to norepinephrine treatment: increase in neurosphere numbers similar to that observed in the presence of 10 μM norepinephrine
Hippocampal precursors [3]
  activation of hippocampal precursors: activation of hippocampal precursors
  number of neurospheres with a diameter greater than 100 μM: much greater
  total number of neurospheres derived from treated mice: greater than when saline is infused
[4]
  large neurospheres obtained: increase in, large neurospheres; also recorded: increase in large neurospheres
[4]; 8 weeks old C57/B16 mice, n=7
  activation of stem cells in the hippocampus: significant activation of stem cells in the hippocampus

## NC[C@H](O)c1ccc(O)c(O)c1 [norepinephrine, L-(−)-noradrenaline (+)-bitartrate salt monohydrate]
[1]; 100 nM and 1 μM
  neurosphere numbers compared to the control: significant increase
[1]; 10 μM
  size of neurospheres: larger than the control neurospheres
[1]; norepinephrine with or without SR59230A 10 nM
  very large neurospheres generated: 12±2.08 neurospheres
Hes5-GFP-positive cells; 10 μM, GFP-positive population
  very large neurospheres (>200 μm in diameter): 7.3±0.8 neurospheres per hippocampus
Hes5-GFP-positive cells; Hes5-GFP-positive cells plated at clonal density
  increase in neurosphere numbers: 215.4±23.5%
Hes5-GFP-positive cells; n=2 experiments, SR59230A 10 nM
  number of neurospheres from purified Hes5-GFP-positive precursor population: 45.5±2.5 neurospheres
[5]
  proportion of stimulated large neurospheres (>200 μm) that could be passaged over 10 times: 71.4%
Hippocampal neurospheres; all large neurospheres examined, n=9
  neurons per stimulated large neurosphere: > 50 neurons
Hippocampal neurospheres; stimulated neurospheres
  neurospheres containing MBP-positive oligodendrocytes: One third
Hippocampal neurospheres; stimulated neurospheres examined
  neurospheres containing βIII tubulin-positive neurons: 62 out of 82
Hippocampal precursors [2]; slices treated at 100 μM
  increase in neurosphere frequency / precursor activity: 3.5 fold

## CNCCCC12CCC(c3ccccc31)c1ccccc12 [maprotiline]
Hippocampal precursors [2]
  neurosphere frequency: significant increase
Hippocampal precursors [2]; slices treated at 1 μM
  neurosphere frequency as percentage of the control: 258.5±25.5%

## COc1cc2nc(N3CCN(C(=O)c4ccco4)CC3)nc(N)c2cc1OC [prazosin]
[1]
  effect of antagonist on norepinephrine-stimulated increase in neurosphere numbers: failed to inhibit

## CCc1ccccc1OC[C@@H](O)CN[C@H]1CCCc2ccccc21.O=C(O)C(=O)O [SR59230A, 3-(2-ethylphenoxy)-1([1s]-1,2,3,4-tetrahydronaphth-1-ylamino)-2S-propanol oxalate]
[1]
  effect of antagonist on norepinephrine-stimulated increase in neurosphere numbers: completely blocked; also recorded: completely inhibited

## CNCC[C@@H](Oc1ccccc1C)c1ccccc1 [atomoxetine]
Hippocampal precursors [2]
  neurosphere frequency: significant increase
Hippocampal precursors [2]; slices treated at 1 μM
  neurosphere frequency as percentage of the control: 147.0±15.0%

## CCOc1ccccc1OC(c1ccccc1)C1CNCCO1 (stereo not shown) [reboxetine]
Hippocampal precursors [2]; 10 μM and 100 μM
  frequency of neurosphere formation: significantly enhanced
Hippocampal precursors [2]; slices treated at 1 μM
  neurosphere frequency as percentage of the control: 104.5±9.6%
Hippocampal precursors [2]; slices treated at 10 μM
  increase in frequency of neurosphere formation: 40%
Hippocampal precursors [2]; slices treated at 100 μM
  neurosphere frequency as percentage of the control: 265.0±11.7%

## CC(C)NCC(O)COc1cccc2ccccc12 (stereo not shown) [propranolol]
[1]
  neurosphere numbers with antagonist alone: no toxic effect
  effect of antagonist on norepinephrine-stimulated increase in neurosphere numbers: reduced the norepinephrine-mediated response back to control levels; also recorded: completely inhibited
Hippocampal precursors [2]; propranolol 10 μM in presence of norepinephrine
  effect on norepinephrine-mediated increase in precursor activity: completely inhibit; also recorded: abolished
Hippocampal precursors [2]; propranolol 10 μM in presence of reboxetine
  effect on reboxetine-mediated increase in precursor activity: completely inhibit; also recorded: abolished

## Cc1ccc(OCC(O)C(C)NC(C)C)c2c1CCC2 (stereo not shown) [ICI118,551]
[1]
  neurosphere numbers with antagonist alone: significant increase
  increase in neurosphere numbers compared to the control: about 34%

## COC(=O)[C@@H]1[C@H]2C[C@H]3c4[nH]c5ccccc5c4CCN3C[C@@H]2CC[C@@H]1O [yohimbine]
[1]
  neurosphere numbers with antagonist alone: slight but significant increase
  increase in neurosphere numbers compared to the control: 40%
  effect of antagonist on norepinephrine-stimulated increase in neurosphere numbers: failed to inhibit

## CNCCC(Oc1ccc(C(F)(F)F)cc1)c1ccccc1 (stereo not shown) [fluoxetine]
Hippocampal precursors [2]
  effect on precursor numbers / frequency of neurosphere generation: no significant change
Hippocampal precursors [2]; listed as Fluoxetine
  effect on precursor numbers / frequency of neurosphere generation: no effect
